# How the values were obtained:
# [1] = Sulfur compound adsorption in the presence of mint oil (sniff test), allyl mercaptan; conditions: Allyl mercaptan 5 ppb (w/v), mint oil 50 ppb, adsorbent 0.1% w/v, 20 minutes of shaking, sniffed
# Procedure: (§1) All dilution operations were done using water under nitrogen in capped bottles. Hydrogen sulfide was measured as a gas in a syringe and injected into a sealed bottle containing deoxygenated water. The concentration (ppb w/w) was calculated assuming all of the hydrogen sulfide (H2S) dissolved in the water after shaking, and using the density of the gas.
# (§2) All of the liquid compounds were handled by syringe. Concentrations of thiols are reported assuming that their specific gravity is 1. Adsorbents, as made by Example 1, were weighed as dry powders into bottles before sealing and before the addition of room temperature dilute sulfide solution. After 20 minutes of shaking, the bottle was unsealed and the contents carefully sniffed.
# (§3) The object of the experiment was to remove the thiol odor but not to remove the mint oil aroma.
# [2] = Sulfur compound adsorption in the presence of mint oil (sniff test), hydrogen sulfide; conditions: H2S 50 ppb, mint oil 50 ppb, adsorbent 0.1% w/v, 20 minutes of shaking, sniffed
# Procedure: as §1, §2, §3
# [3] = Sulfur compound adsorption in the presence of mint oil (sniff test), diallyl disulfide; conditions: Diallyl disulfide 5 ppb (w/v), mint oil 50 ppb, adsorbent 0.1% w/v, 20 minutes of shaking, sniffed
# Procedure: as §1, §2, §3
# [4] = Sulfur compound adsorption in the presence of mint oil (sniff test), propane thiol; conditions: Propane thiol 5 ppb (w/v), mint oil 50 ppb, adsorbent 0.1% w/v, 20 minutes of shaking, sniffed
# Procedure: as §1, §2, §3
# [5] = Activity of metal complexes in removing garlic odor (sniffed for residual odor); set-up: key: ++: complete odor removal; +: slight odor remaining; −: no odor removal; NA: complex was not insoluble; ?: allyl mercaptan smell masked by methionine smell; conditions: 5 ml solution with 627 nmol allyl mercaptan in water, sealed vial, 10 minutes, room temperature
# Procedure: Each amino acid solution was made by dissolving 2.74 g of the amino acid into 40 ml of water. The complex with the metal was synthesized as described in the second step of Example 1.
# Odor removal was tested using 5 ml of a solution containing 627 nmol of allyl mercaptan in water. A suspension of the metal complex was mixed with the mercaptan solution, reacted in a sealed vial for 10 minutes at room temperature, and then sniffed for residual odor.
substance,measurement,setting,value
Cystine-copper Complex,"Smell Garlic, Effect",[1],v. faint
same,"Smell Garlic, Effect",[2],None
same,"Smell Mint, Effect",[2],strong
same,"Smell Garlic, Effect",[3],v. weak
same,"Smell Garlic, Effect",[4],Faint
same,Activity in removing garlic odor,[5],++

# Source: patent publication US6403642B1, “Sulfur adsorbent for reducing onion or garlic breath odor” (PQ Holding, Inc., priority 1999, dated 2002)
